Results reported in PMC5813499 (Bioorganic & medicinal chemistry, 2017).

Tests used:
[1] = target: allosteric site of the mGluR5 receptor (Homo sapiens, UniProt P41594); assay: PDSP binding at the allosteric site of the mGluR5 receptor; conditions: binding affinity at allosteric site; type of constant not given
[2] = target: L-type Voltage gated calcium Channel (VGCC) (Rattus norvegicus, UniProt P22002); assay: PDSP binding at the L-type voltage gated calcium channel; conditions: for VGCC (IC50, nM): PDSP screening
Sequence of L-type Voltage gated calcium Channel (VGCC) (P22002 whole entry): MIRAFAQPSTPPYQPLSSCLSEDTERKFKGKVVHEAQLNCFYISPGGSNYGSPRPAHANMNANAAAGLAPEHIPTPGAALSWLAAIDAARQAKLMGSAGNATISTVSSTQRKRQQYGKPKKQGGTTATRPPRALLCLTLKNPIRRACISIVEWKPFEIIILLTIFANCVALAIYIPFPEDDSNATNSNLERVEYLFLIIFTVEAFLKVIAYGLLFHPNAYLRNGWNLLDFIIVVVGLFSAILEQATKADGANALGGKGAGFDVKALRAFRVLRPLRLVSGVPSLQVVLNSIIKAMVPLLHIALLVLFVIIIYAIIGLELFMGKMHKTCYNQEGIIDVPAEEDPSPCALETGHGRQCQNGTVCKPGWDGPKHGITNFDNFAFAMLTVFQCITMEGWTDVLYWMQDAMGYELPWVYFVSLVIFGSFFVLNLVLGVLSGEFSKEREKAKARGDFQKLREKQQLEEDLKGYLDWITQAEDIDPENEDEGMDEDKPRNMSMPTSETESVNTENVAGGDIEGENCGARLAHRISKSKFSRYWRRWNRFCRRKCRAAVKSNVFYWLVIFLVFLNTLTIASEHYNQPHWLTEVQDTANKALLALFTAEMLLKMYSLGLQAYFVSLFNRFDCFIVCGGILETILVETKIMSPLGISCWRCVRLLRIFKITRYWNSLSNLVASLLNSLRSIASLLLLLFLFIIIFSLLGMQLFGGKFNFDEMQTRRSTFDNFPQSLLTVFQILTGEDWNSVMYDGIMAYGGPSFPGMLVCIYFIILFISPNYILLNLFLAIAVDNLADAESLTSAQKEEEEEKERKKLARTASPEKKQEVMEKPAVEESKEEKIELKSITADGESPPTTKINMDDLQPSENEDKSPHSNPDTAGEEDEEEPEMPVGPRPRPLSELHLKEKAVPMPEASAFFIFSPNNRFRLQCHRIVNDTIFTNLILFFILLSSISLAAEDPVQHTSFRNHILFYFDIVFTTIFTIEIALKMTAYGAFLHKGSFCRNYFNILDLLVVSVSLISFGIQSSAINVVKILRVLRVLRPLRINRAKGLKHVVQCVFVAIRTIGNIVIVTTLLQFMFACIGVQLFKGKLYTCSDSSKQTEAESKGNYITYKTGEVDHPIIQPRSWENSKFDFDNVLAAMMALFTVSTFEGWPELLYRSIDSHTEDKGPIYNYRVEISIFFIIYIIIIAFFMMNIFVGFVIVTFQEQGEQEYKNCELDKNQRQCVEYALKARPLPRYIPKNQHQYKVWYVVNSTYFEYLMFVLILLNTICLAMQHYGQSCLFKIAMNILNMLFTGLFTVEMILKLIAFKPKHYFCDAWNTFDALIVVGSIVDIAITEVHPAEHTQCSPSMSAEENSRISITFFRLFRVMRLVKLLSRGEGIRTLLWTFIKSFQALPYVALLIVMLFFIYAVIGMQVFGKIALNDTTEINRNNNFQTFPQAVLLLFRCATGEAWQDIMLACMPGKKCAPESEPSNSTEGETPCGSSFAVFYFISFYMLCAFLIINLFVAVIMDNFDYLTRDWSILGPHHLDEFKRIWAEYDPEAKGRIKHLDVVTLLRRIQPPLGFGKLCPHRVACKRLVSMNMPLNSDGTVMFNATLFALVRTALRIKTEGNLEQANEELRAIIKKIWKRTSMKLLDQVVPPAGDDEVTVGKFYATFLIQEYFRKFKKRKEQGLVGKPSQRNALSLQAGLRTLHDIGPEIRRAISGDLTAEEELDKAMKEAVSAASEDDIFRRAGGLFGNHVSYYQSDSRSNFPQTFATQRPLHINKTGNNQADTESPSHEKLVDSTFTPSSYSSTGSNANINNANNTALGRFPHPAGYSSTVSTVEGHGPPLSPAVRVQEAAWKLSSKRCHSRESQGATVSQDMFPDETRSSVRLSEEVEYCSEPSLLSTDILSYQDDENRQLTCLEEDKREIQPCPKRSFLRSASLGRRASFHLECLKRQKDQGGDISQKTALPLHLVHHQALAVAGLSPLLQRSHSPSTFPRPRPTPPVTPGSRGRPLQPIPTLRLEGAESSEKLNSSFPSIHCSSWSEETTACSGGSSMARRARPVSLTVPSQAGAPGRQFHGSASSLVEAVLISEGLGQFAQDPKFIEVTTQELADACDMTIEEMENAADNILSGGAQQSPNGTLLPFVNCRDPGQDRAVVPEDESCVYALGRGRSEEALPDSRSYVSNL

Sequence of allosteric site of the mGluR5 receptor (P41594 21-1212): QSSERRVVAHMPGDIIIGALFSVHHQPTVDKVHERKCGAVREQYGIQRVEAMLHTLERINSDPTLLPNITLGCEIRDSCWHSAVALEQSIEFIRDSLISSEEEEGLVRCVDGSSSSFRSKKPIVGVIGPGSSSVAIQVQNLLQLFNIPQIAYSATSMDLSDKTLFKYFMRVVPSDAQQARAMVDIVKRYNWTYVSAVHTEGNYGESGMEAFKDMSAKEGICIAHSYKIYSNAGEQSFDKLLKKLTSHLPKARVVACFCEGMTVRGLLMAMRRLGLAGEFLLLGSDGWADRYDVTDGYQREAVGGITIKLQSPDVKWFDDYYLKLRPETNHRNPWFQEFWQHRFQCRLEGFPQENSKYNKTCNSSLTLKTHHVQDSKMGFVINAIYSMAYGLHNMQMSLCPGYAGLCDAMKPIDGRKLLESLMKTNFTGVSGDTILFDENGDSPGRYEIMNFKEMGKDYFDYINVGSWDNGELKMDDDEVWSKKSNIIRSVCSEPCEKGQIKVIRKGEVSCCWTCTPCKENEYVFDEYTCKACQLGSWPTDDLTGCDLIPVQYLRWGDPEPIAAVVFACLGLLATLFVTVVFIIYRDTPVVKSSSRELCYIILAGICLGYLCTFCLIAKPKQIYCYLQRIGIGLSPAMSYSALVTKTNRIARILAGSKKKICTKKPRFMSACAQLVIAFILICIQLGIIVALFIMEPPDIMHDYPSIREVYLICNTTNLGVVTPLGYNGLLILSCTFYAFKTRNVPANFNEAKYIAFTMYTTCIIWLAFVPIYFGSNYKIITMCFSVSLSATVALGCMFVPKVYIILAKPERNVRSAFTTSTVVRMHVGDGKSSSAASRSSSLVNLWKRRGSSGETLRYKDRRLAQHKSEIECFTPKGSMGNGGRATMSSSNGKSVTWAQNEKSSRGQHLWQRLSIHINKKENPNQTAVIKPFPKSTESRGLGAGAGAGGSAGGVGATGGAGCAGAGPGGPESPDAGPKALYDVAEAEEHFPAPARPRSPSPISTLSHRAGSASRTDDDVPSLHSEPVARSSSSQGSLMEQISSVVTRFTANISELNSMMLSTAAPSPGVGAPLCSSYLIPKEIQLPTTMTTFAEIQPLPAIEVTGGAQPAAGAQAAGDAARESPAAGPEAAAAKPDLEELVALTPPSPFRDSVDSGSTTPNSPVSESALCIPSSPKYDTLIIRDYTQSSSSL

Row | Compound | mGluR5 (nM) [1] | mGluR5 [1] | other results
1 | CCOC(=O)C1=C(C)NC(C)=C(C(=O)OCC)C1c1c(-c2ccc(Br)cc2)noc1C [1d, 4-[3-(p-bromo-phenyl)-5-methyl-isoxazol-4-yl]-2,6-dimethyl-1,4-dihydro-pyridine-3,5-dicarboxylic acid diethyl ester] | >10,000 nM | – | VGCC potency ratio of 1d versus o-Br 1b ([2]; fold more potent than 1b): over 25 times
2 | CCOC(=O)C1=C(C)NC(C)=C(C(=O)OCC)C1c1c(-c2cccc(Br)c2)noc1C [1c, 4-[3-(m-Bromo-phenyl)-5-methyl-isoxazol-4-yl]-2,6-dimethyl-1,4-dihydro-pyridine-3,5-dicarboxylic acid diethyl ester] | >10,000 nM | – | –
3 | CCOC(=O)C1=C(C)NC(C)=C(C(=O)OCc2cn(CCOCCOCCOCCOCCOCCn3cc(COC(=O)C4=C(C)NC(C)=C(C(=O)OCC)C4c4c(-c5ccccc5)noc4C)nn3)nn2)C1c1c(-c2ccccc2)noc1C (stereo not shown) [4a, 3-(1-{17-[4-({[5-(Ethoxycarbonyl)-2,6-dimethyl-4-(5-methyl-3-phenyl-1,2-oxazol-4-yl)-1,4-dihydropyridin-3-yl]carbonyloxy}methyl)-1H-1,2,3-triazol-1-yl]-3,6,9,12,15-pentaoxaheptadecan-1-yl}-1H-1,2,3-triazol-4-yl)methyl 5-ethyl 2,6-dimethyl-4-(5-methyl-3-phenyl-1,2-oxazol-4-yl)-1,4-dihydropyridine-3,5-dicarboxylate] | >10,000 nM | – | –
4 | CCOC(=O)C1=C(C)NC(C)=C(C(=O)OCC)C1c1c(-c2ccccc2Br)noc1C [1b, 4-[3-(o-Bromo-phenyl)-5-methyl-isoxazol-4-yl]-2,6-dimethyl-1,4-dihydro-pyridine-3,5-dicarboxylic acid diethyl ester] | – | 1.524 µM | –
5 | CCOC(=O)C1=C(C)NC(C)=C(C(=O)OCc2cn(CCOCCOCCOCCOCCOCCn3cc(COC(=O)C4=C(C)NC(C)=C(C(=O)OCC)C4c4c(-c5ccccc5Br)noc4C)nn3)nn2)C1c1c(-c2ccccc2Br)noc1C (stereo not shown) [4b, 3-[1-(17-{4-[({4-[3-(o-Bromophenyl)-5-methyl-1,2-oxazol-4-yl]-5-(ethoxycarbonyl)-2,6-dimethyl-1,4-dihydropyridin-3-yl}carbonyloxy)methyl]-1H-1,2,3-triazol-1-yl}-3,6,9,12,15-pentaoxaheptadecan-1-yl)-1H-1,2,3-triazol-4-yl]methyl 5-ethyl 4-[3-(o-bromophenyl)-5-methyl-1,2-oxazol-4-yl]-2,6-dimethyl-1,4-dihydropyridine-3,5-dicarboxylate] | – | 4.858 µM | VGCC (IC50, nM) [2]: essentially abolished
6 | CCOC(=O)C1=C(C)NC(C)=C(C(=O)OCc2cn(CCOCCOCCOCCOCCOCCn3cc(COC(=O)C4=C(C)NC(C)=C(C(=O)OCC)C4c4c(-c5cccc(Br)c5)noc4C)nn3)nn2)C1c1c(-c2cccc(Br)c2)noc1C (stereo not shown) [4c, 3-[1-(17-{4-[({4-[3-(m-bromophenyl)-5-methyl-1,2-oxazol-4-yl]-5-(ethoxycarbonyl)-2,6-dimethyl-1,4-dihydropyridin-3-yl}carbonyloxy)methyl]-1H-1,2,3-triazol-1-yl}-3,6,9,12,15-pentaoxaheptadecan-1-yl)-1H-1,2,3-triazol-4-yl]methyl 5-ethyl 4-[3-(m-bromophenyl)-5-methyl-1,2-oxazol-4-yl]-2,6-dimethyl-1,4-dihydropyridine-3,5-dicarboxylate] | – | 8.638 µM | –
7 | CCOC(=O)c1c(C)nc(C)c(C(=O)OCC)c1-c1c(-c2ccccc2)noc1C [compound 6, 2,6-dimethyl-4-(5-methyl-3-phenyl-isoxazol-4-yl)-pyridine-3,5-dicarboxylic acid diethyl ester] | – | – | VGCC (IC50, nM) [2]: essentially bereft of activity
8 | CCOC(=O)C1=C(C)NC(C)=C(C(=O)OCc2cn(CCc3ccccc3)nn2)C1c1c(-c2ccc(Br)cc2)noc1C (stereo not shown) [compound 5, 4-[3-(p-Bromo-phenyl)-5-methyl-isoxazol-4-yl]-2,6-dimethyl-1,4-dihydro-pyridine 3,5-dicarboxylic acid 3-ethyl ester 5-(1-phenethyl-1H-[1,2,3]triazol-4-ylmethyl) ester] | – | 1.972 µM | –
